In PubChem BioAssay AID1205 (EPA DSSTox, 2008):
Calls of active or inactive are those of the source.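 How the source made its calls: active means tumour findings in long-term animal cancer tests in more than one sex, species or organ; inactive means no tumour finding and more than one negative test.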

test: DSSTox (CPDBAS) Carcinogenic Potency Database Summary MultiCellCall Results; conditions: animal carcinogenicity bioassays, multi-cell call summary
Method in brief: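 ActivityScore sums 50 for multispecies, 30 for multisex and 20 for multisite positivity. Based on the most positive experiment per sex-species across standardised chronic rodent and other animal cancer tests.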

| SMILES | outcome |
| --- | --- |
| Cc1nc(N)cc2[nH]c3ccccc3c12 | active; multisite active; multisex active; multispecies active |
| Nc1c(Br)cc(Br)c2c1C(=O)c1ccccc1C2=O | active; multisite active; multisex active; multispecies active |
| O=C(c1ccccc1)C(O)c1ccccc1 (stereo not drawn) | inactive; multisex inactive; multispecies inactive |
| COc1cc(N)ccc1N=Nc1ccccc1 | inactive; multisex inactive |
| [O-][Br+2]([O-])O | active; multisite active; multisex active; multispecies active |
| O=C(Nc1cccc2c(=O)cc(-c3nn[nH]n3)oc12)c1ccc(OCCCCc2ccccc2)cc1 | inactive; multisex inactive |
| CC1SC(C)N(N=O)C(C)S1 (stereo not drawn) | active; multisite active |
| Cc1cc(C)c(N=Nc2c(O)c(S(=O)(=O)O)cc3cc(S(=O)(=O)O)ccc23)cc1C | active; multisex active |
| CO[C@@]12[C@H](COC(N)=O)C3=C(C(=O)C(C)=C(N)C3=O)N1C[C@@H]1N[C@@H]12 | active; multisex active |
| CC(=O)NNC(=O)c1ccncc1 | active; multisex active |
| CC(=O)CN(CCO)N=O | active; multisite active; multispecies active |
| OC[C@H]1O[C@@H]2O[C@H]3[C@H](O)[C@@H](O)[C@@H](O[C@H]4[C@H](O)[C@@H](O)[C@@H](O[C@H]5[C@H](O)[C@@H](O)[C@@H](O[C@H]6[C@H](O)[C@@H](O)[C@@H](O[C@H]7[C@H](O)[C@@H](O)[C@@H](O[C@H]8[C@H](O)[C@@H](O)[C@@H](O[C@H]1[C@H](O)[C@H]2O)O[C@@H]8CO)O[C@@H]7CO)O[C@@H]6CO)O[C@@H]5CO)O[C@@H]4CO)O[C@@H]3CO | inactive; multisex inactive; multispecies inactive |
| CCN(CC)C(=S)[S-].CCN(CC)C(=S)[S-].[Zn+2] | inactive; multisex inactive |
| C[N+](C)(C)CCO | inactive; multispecies inactive |
| Cn1c(=O)c2c(ncn2C)n(C)c1=O | inactive; multisex inactive; multispecies inactive |
| CC(Oc1ccc(Cl)cc1Cl)C(=O)O (stereo not drawn) | inactive; multisex inactive |
| O=C(O)c1ccccc1-c1c2cc(I)c(=O)c(I)c-2oc2c(I)c(O)c(I)cc12 | inactive; multisex inactive; multispecies inactive |
| N=c1ccn2c(n1)O[C@H]1[C@H](O)[C@@H](CO)O[C@H]12 | inactive; multisex inactive |
| C=CC(O)c1ccc2c(c1)OCO2 (stereo not drawn) | active; multisite active; multisex active; multispecies active |
| CCc1ccc(C(c2ccc(CC)cc2)C(Cl)Cl)cc1 | inactive; multisex inactive; multispecies inactive |
| Cc1ccc([N+](=O)[O-])cc1N | active; multisite active; multisex active |
| COc1ccc(CN(CCN(C)C)c2ccccn2)cc1 | active; multisex active |
| COc1ccc2nc(S(=O)Cc3ncc(C)c(OC)c3C)[nH]c2c1 (stereo not drawn) | active; multisex active |
| CN1CCCC1=O | active; multisex active |

| SMILES | outcome |
| --- | --- |
| S=C(NC1CCCCC1)NC1CCCCC1 | inactive; multisex inactive; multispecies inactive |
| C=C1C(CCl)(CCl)C2(Cl)C(Cl)C(Cl)C1(Cl)C2(Cl)Cl (stereo not drawn) | active; multisex active |
| CN(C)CCN(Cc1ccco1)c1ccccn1 | inactive; multisex inactive |
| O[C@H]([C@H](O)[C@@H](O)CBr)[C@H](O)CBr | active; multisite active; multisex active; multispecies active |
| Cc1ccc2c(-c3cccc(O)c3)nc(=O)n(C(C)C)c2c1 | inactive; multisex inactive; multispecies inactive |
| C=Cc1cccc(C)c1 | inactive; multisex inactive; multispecies inactive |
| O=C(O)c1[nH]n(-c2ccc(S(=O)(=O)O)cc2)c(=O)c1N=Nc1ccc(S(=O)(=O)O)cc1 | inactive; multisex inactive; multispecies inactive |
| CCCCCl | inactive; multisex inactive; multispecies inactive |
| O=C1C(c2[nH]c3ccc(S(=O)(=O)O)cc3c2O)=Nc2ccc(S(=O)(=O)O)cc21 | inactive; multisex inactive; multispecies inactive |
| NC(N)=O | inactive; multisex inactive; multispecies inactive |
| CN(C)C(=S)S[Se](SC(=S)N(C)C)(SC(=S)N(C)C)SC(=S)N(C)C | inactive; multisex inactive |
| CC(I)C1OCC(CO)O1 (stereo not drawn) | active; multisite active; multisex active; multispecies active |
| Oc1cccc2cccnc12.Oc1cccc2cccnc12.[Cu] | inactive; multisex inactive |
| CNc1ncnc2nc[nH]c12 | inactive; multisex inactive |
| NC(=O)c1ccccc1C(N)=O | inactive; multisex inactive; multispecies inactive |
| CCN(CC)C(=O)c1cccc(C)c1 | inactive; multisex inactive; multispecies inactive |
| Brc1cc(Br)c2cccnc2c1 | inactive; multisex inactive |
| Oc1cccc(O)c1 | inactive; multisex inactive; multispecies inactive |
| C=C1C[C@@]23CC[C@H]4[C@@](C)(CCC[C@@]4(C)C(=O)O[C@@H]4O[C@H](CO)[C@@H](O)[C@H](O)[C@H]4O)[C@@H]2CC[C@]1(O[C@@H]1O[C@H](CO)[C@@H](O)[C@H](O)[C@H]1O[C@@H]1O[C@H](CO)[C@@H](O)[C@H](O)[C@H]1O)C3 | inactive; multisex inactive |
| O=[N+]([O-])c1ccc2ncccc2c1 | inactive; multisex inactive |
| CC(Oc1cc(Cl)ccc1Cl)C(=O)O (stereo not drawn) | inactive; multisex inactive |
| Nc1nc(N)c2nc(-c3ccccc3)c(N)nc2n1 | active; multisex active |
| Cc1c(N)nc(C)c2c1[nH]c1ccccc12 | active; multisex active; multispecies active |
| Cc1ccc(S(=O)(=O)Oc2ccc(N=Nc3ccc(-c4ccc(N=Nc5c(O)ccc6cc(S(=O)(=O)O)cc(S(=O)(=O)O)c56)c(C)c4)cc3C)cc2)cc1 | active; multisite active; multisex active |

| SMILES | outcome |
| --- | --- |
| Nc1nc(-c2ccc([N+](=O)[O-])o2)cs1 | active; multisite active; multispecies active |
| C1CCOC1 | active; multisite active; multisex active; multispecies active |
| CCN(Cc1cccc(S(=O)(=O)[O-])c1)c1ccc(C(=C2C=CC(=[N+](C)C)C=C2)c2ccc(N(CC)Cc3cccc(S(=O)(=O)O)c3)cc2)cc1 | active; multisite active |
| CC(=O)Nc1ccc(O)cc1 | active; multisite active; multisex active; multispecies active |
| O=NN1CCOC1=O | active; multisite active |
| CC(C)=CCC/C(C)=C/C=O | inactive; multisex inactive; multispecies inactive |
| Cc1cccn2c1nc1ccc(N)nc12 | active; multisite active; multisex active; multispecies active |
| CC(=O)CN(CC(O)CO)N=O (stereo not drawn) | active; multisite active; multispecies active |
| C1N2CN3CN1CN(C2)C3 | inactive; multisex inactive; multispecies inactive |
| CN(CCO)N=O | active; multisite active |
| C=C(Cl)Cl | active; multisite active; multisex active |
| Cc1ccc(S(=O)(=O)NC(=O)NN2CCCCCC2)cc1 | inactive; multisex inactive; multispecies inactive |
| ClCC(Cl)Cl | active; multisite active; multisex active |
| ClC(Cl)(Cl)c1ccccc1 | active; multisite active |
| C=CCOc1ccc(CC(=O)O)cc1Cl | inactive; multisex inactive |
| CN(C)C(=O)Cl | active; multisite active; multisex active; multispecies active |
| COc1c2occc2cc2ccc(=O)oc12 | active; multisite active |
| CC/C(=C(/CC)c1ccc(O)cc1)c1ccc(O)cc1 | active; multisite active; multisex active; multispecies active |
| O=c1c(O)c(-c2ccc(O)cc2)oc2cc(O)cc(O)c12 | inactive; multisex inactive |
| Nc1ncn[nH]1 | active; multisite active; multisex active; multispecies active |
| CC(N)=O | active; multisite active; multisex active; multispecies active |
| CN(N=O)c1ccc(/C=C/c2ccnc3ccccc23)cc1 | active; multisex active |
| Clc1cc2c(c(Cl)c1Cl)Oc1c(cc(Cl)c(Cl)c1Cl)O2 | active; multisex active; multispecies active |
| CCOP(=S)(OCC)Oc1ccc2c(C)c(Cl)c(=O)oc2c1 | inactive; multisex inactive; multispecies inactive |

| SMILES | outcome |
| --- | --- |
| Cc1cccc2cccnc12 | inactive; multisex inactive |
| O=S(=O)([O-])[O-].[O]=[V+2] | inactive; multisex inactive; multispecies inactive |
| C=CCCl | inactive; multisex inactive |
| Nc1ccccc1N | active; multisex active; multispecies active |
| CN(C)c1ccc(C(=C2C=CC(=[N+](C)C)C=C2)c2ccc(N(C)C)cc2)cc1 | active; multisite active; multisex active |
| O=NN1CC(=O)NC1=O | active; multisite active; multisex active |
| CN(C)C(=S)[S-].CN(C)C(=S)[S-].[Cu+2] | inactive; multisex inactive |
| C=CC(=C)C | active; multisite active; multisex active; multispecies active |
| COc1cc2c(c3oc(=O)c4c(c13)CCC4=O)C1C=COC1O2 (stereo not drawn) | active; multisite active; multisex active; multispecies active |
| CC(C)(C)c1cc(O)ccc1O | inactive; multisex inactive |
| COC(=O)C1=C(C)NC(C)=C(C(=O)OCC(C)(C)CN(C)Cc2ccccc2)C1c1cc([N+](=O)[O-])ccc1F (stereo not drawn) | inactive; multisex inactive |
| CCn1c2ccccc2c2cc(N)ccc21 | active; multisite active; multisex active; multispecies active |
| ClC(Cl)=C(Cl)c1c(Cl)c(Cl)c(Cl)c(Cl)c1Cl | inactive; multisex inactive; multispecies inactive |
| O=CCCCC=O | inactive; multisex inactive; multispecies inactive |
| CCCCCCCC/C=C\CCCCCCCC(=O)O | inactive; multisex inactive |
| NNc1ccc(C(=O)O)cc1 | active; multisex active |
| OCCO | inactive; multisex inactive |
| COc1cc2c(c3c1c(=O)c1ccccc1n3C)C=CC(C)(C)O2 | active; multisite active; multisex active |
| O=NN1C[C@H](O)C[C@H]1C(=O)O | inactive; multisex inactive |
| Cc1cc(C)c(N)cc1C | active; multisite active; multisex active; multispecies active |
| COS(C)(=O)=O | active; multisite active |
